# Test results from patent US10183019B2, “Treatment of cancer with dihydropyrazino-pyrazines” (Signal Pharmaceuticals, LLC, priority 2013, dated 2019).
# Legend:
# [1] = system: patient-derived GBM cell line 217; experiment: Combination effect of Compound 1 and TMZ on cell survival (fractional product); type: cell-based; conditions: 168 h, 7 days, read-out: % Actual inh.
# Text: (§1) TMZ is an alkylating agent that delivers a methyl group to the purine bases of DNA (O^6-guanine; N^7-guanine and N^3-adenine). The cytotoxic lesion, O^6-methylguanine (O^6-MeG), caused by TMZ can be directly removed by methylguanine methyltransferase (MGMT) via direct repair and can also activate mechanisms of mismatch repair (MMR). Futile cycles of MMR lead to the formation of double-stranded DNA breaks and activation of the DNA-PK mediated mechanisms of double-stranded break repair.
# (§2) Tumorspheres grown under tumorsphere culture conditions were harvested, dissociated into single cells, and plated at 5,000 cells/well in 96-well plates. […] When the value of the column % actual inhibition divided by % inhibition calculated based on summation is >1=synergism, ˜1=summation, <1=antagonism.
# [2] = system: patient-derived GBM cell line 206; experiment: as above; type: cell-based; conditions: 168 h, 7 days, read-out: % Actual inh.
# Text: as §1, §2
# [3] = system: patient-derived GBM cell line 217; experiment: Gliomasphere Formation Assay; type: cell-based; conditions: cell line 217, Primary; 50% sphere formation vs DMSO control
# Protocol: (§3) Primary patient-derived GBM tumor samples were dissociated and plated under culture conditions (i.e. DMEM/F12 medium supplemented with B27, 20 ng/mL bFGF, 50 ng/mL EGF, penicillin/streptomycin, L-glutamine and 5 ug/mL heparin) that produce gliomaspheres. Cells were plated at a density of 50 cells per well and allowed to acclimate overnight at 37° C. The Dihydropyrazino-Pyrazine Compounds were added to the cultures on Day 2 and replenished every 7 days. EGF and FGF were also replenished every 7 days. The cells were fixed with PFA/methanol when the smallest sphere was greater than 60 microns, typically 3-5 weeks. The cells were fixed with PFA/methanol and the next day assessed for cell number, using for example, SYTO-9 fluorescent DNA dye. Plates were read 48 h later with a laser scanning imager.
# [4] = system: patient-derived GBM cell line 350; experiment: Gliomasphere Formation Assay; type: cell-based; conditions: cell line 350, Recurrent; 50% sphere formation vs DMSO control
# Protocol: as §3
# [5] = system: patient-derived GBM cell line 308; experiment: Gliomasphere Formation Assay; type: cell-based; conditions: cell line 308, Recurrent, MGMT Unkn/Highly Expressed; 50% sphere formation vs DMSO control
# Protocol: as §3
# [6] = system: patient-derived GBM cell line 245; experiment: Gliomasphere Formation Assay; type: cell-based; conditions: cell line 245, Recurrent; 50% sphere formation vs DMSO control
# Protocol: as §3
# [7] = system: patient-derived GBM cell line 296; experiment: Gliomasphere Formation Assay; type: cell-based; conditions: cell line 296, Recurrent, MGMT status −; 50% sphere formation vs DMSO control
# Protocol: as §3
# [8] = system: patient-derived GBM cell line 378; experiment: Gliomasphere Cell Number Assay; type: cell-based; conditions: cell line 378, Recurrent, MGMT status −; 50% cell numbers vs DMSO control, Day 2 to Day 9; read-out: IC50 Cell Survival
# Protocol: (§4) Gliomasphere Cell Number Assay. Primary patient-derived GBM tumor samples were dissociated and plated under culture conditions that produce gliomaspheres (i.e. DMEM/F12 medium supplemented with B27, 20 ng/mL bFGF, 50 ng/mL EGF, penicillin/streptomycin, L-glutamine and 5 ug/mL heparin). Cells were plated at a density of 5000 cells/well and allowed to acclimate overnight at 37° C. The Dihydropyrazino-Pyrazine Compounds were added to the cultures on Day 2 and cells were kept in culture until Day 9. On Day 9, the cells were fixed with PFA/methanol and the next day assessed for cell number, using for example, SYTO-9 fluorescent DNA dye. Plates were read 48 h later with a laser scanning imager.
# [9] = system: patient-derived GBM cell line 217; experiment: Gliomasphere Cell Number Assay; type: cell-based; conditions: cell line 217, Primary; 50% cell numbers vs DMSO control, Day 2 to Day 9; read-out: IC50 Cell Survival
# Protocol: as §4
# [10] = system: patient-derived GBM cell line 347; experiment: Gliomasphere Cell Number Assay; type: cell-based; conditions: cell line 347, Recurrent, MGMT status −; 50% cell numbers vs DMSO control, Day 2 to Day 9; read-out: IC50 Cell Survival
# Protocol: as §4
# [11] = system: patient-derived GBM cell line 254; experiment: Gliomasphere Cell Number Assay; type: cell-based; conditions: cell line 254, Recurrent; 50% cell numbers vs DMSO control, Day 2 to Day 9; read-out: IC50 Cell Survival
# Protocol: as §4
# [12] = system: patient-derived GBM cell line 206; experiment: Gliomasphere Cell Number Assay; type: cell-based; conditions: cell line 206, Recurrent, MGMT Unkn/Highly Expressed; 50% cell numbers vs DMSO control, Day 2 to Day 9; read-out: IC50 Cell Survival
# Protocol: as §4
# [13] = system: patient-derived GBM cell line 336; experiment: Gliomasphere Cell Number Assay; type: cell-based; conditions: cell line 336, Recurrent, MGMT status +; 50% cell numbers vs DMSO control, Day 2 to Day 9; read-out: IC50 Cell Survival
# Protocol: as §4
# [14] = system: patient-derived GBM cell line 157; experiment: Gliomasphere Cell Number Assay; type: cell-based; conditions: cell line 157, Primary, MGMT status −; 50% cell numbers vs DMSO control, Day 2 to Day 9; read-out: IC50 Cell Survival
# Protocol: as §4
# [15] = system: patient-derived GBM cell line 296; experiment: Gliomasphere Cell Number Assay; type: cell-based; conditions: cell line 296, Recurrent, MGMT status −; 50% cell numbers vs DMSO control, Day 2 to Day 9; read-out: IC50 Cell Survival
# Protocol: as §4
# [16] = system: patient-derived GBM cell line 250; experiment: Gliomasphere Cell Number Assay; type: cell-based; conditions: cell line 250, Recurrent, MGMT Unkn/Highly Expressed; 50% cell numbers vs DMSO control, Day 2 to Day 9; read-out: IC50 Cell Survival
# Protocol: as §4
# [17] = system: patient-derived GBM cell line 277; experiment: Gliomasphere Cell Number Assay; type: cell-based; conditions: cell line 277, Secondary/Recurrent; 50% cell numbers vs DMSO control, Day 2 to Day 9; read-out: IC50 Cell Survival
# Protocol: as §4
# [18] = system: HF2354 PDX (GBM neurosphere line HF2354); experiment: Patient derived xenograft (PDX) survival study; type: in vivo, nude mouse; conditions: HF2354 PDX in nude mice; 10 mg/kg oral gavage once a day, Monday through Friday
# Protocol: FIG. 2: Kaplan-Meier survival analysis for HF2354 PDX line (end of study). Treatment schedule for survival (Rx) and target hit (TH) are indicated.
# Immunocompromised mice (nude mouse NCRNU-M, TACONIC) were implanted with a GBM neurosphere line derived from fresh surgical specimens. The cell line was characterized as following:
# Patient derived xenograft (PDX) treatments started four weeks prior to when the first animal was expected to become symptomatic. […] Control animals were administered vehicle alone. Target hit cohorts were treated with one dose of each compound and sacrificed 2 and 24 h later (n=3/group). As necessary, fluids and supplemental food were administered to ameliorate weight loss.
structure (smiles),measurement,setting,value
"Cn1nnc2c(C(N)=O)ncn2c1=O [TMZ, Temozolomide]",inhibition at 25 µM,[1]; TMZ 25 μM alone,69%
same,inhibition at 50 µM,[1]; TMZ 50 μM alone,73%
same,inhibition at 100 µM,[1]; TMZ 100 μM alone,77%
same,inhibition at 25 µM,[2]; TMZ 25 μM alone,11.4%
same,inhibition at 50 µM,[2]; TMZ 50 μM alone,0%
same,inhibition at 100 µM,[2]; TMZ 100 μM alone,0%
same,inhibition at 200 µM,[2]; TMZ 200 μM alone,4.3%
"CO[C@H]1CC[C@H](N2C(=O)CNc3ncc(-c4ccc(C(C)(C)O)nc4)nc32)CC1 [Compound 2, 7-(6-(2-hydroxypropan-2-yl)pyridin-3-yl)-1-((1r,4r)-4-methoxycyclohexyl)-3,4-dihydropyrazino-[2,3-b]pyrazin-2(1H)-one]",IC50,[3],68.9 nM
same,IC50,[4],244 nM
same,IC50,[5],76.7 nM
same,IC50,[6],65.1 nM
same,IC50,[7],1700 nM
same,IC50,[8],156 nM
same,IC50,[9],96.3 nM
same,IC50,[10],173 nM
same,IC50,[11],216 nM
same,IC50,[12],118 nM
same,IC50,[13],866 nM
same,IC50,[14],171 nM
same,IC50,[15],257 nM
same,IC50,[16],50.7 nM
same,IC50,[17],106 nM
same,survival (Kaplan-Meier),[18],No effect in survival
